# Results from ChEMBL document CHEMBL5154904, “Discovery and Structural Basis of the Selectivity of Potent Cyclic Peptide Inhibitors of MAGE-A4” (J Med Chem, 2022).
# The source made the active and inactive calls. The rule behind the calls is not given here. Positions of bridges follow the written chain, without caps; N, C: chain ends. Residues, ends and D or L forms follow the SMILES beside them.
# Tests used:
# [1] = target: T1, Melanoma-associated antigen 4 (Homo sapiens, UniProt P43358); assay: Binding affinity to MAGEA4 (unknown origin) expressed in Escherichia coli BL21-(DE3) by isothermal titration calorimetry
# T1 sequence (P43358 whole entry): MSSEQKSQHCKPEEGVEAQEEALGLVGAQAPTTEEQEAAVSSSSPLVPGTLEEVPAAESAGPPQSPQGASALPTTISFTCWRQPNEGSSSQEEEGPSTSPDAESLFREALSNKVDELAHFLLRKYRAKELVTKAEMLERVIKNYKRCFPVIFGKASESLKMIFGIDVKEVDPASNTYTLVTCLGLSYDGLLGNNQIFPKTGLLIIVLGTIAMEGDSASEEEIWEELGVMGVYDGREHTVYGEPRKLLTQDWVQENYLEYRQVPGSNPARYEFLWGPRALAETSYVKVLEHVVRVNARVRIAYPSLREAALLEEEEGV
# [2] = target: T1, Melanoma-associated antigen 4; assay: Binding affinity to recombinant N-terminal His-tagged MAGEA4-MH domain (unknown origin) expressed in Escherichia coli BL21-(DE3) by isothermal titration calorimetry
# [3] = Inhibition of biotinylated Eu-W1024 streptavidin-labeled MAGEA4 (unknown origin) expressed in Escherichia coli BL21-(DE3)/GST-tagged RAD18 (unknown origin) (267 to 402 residues) interaction using Ulight-anti-GST antibody incubated for 30 to 60 mins by LANCE TR-FRET assay; parameters: species or system Homo sapiens
# [4] = target: T1, Melanoma-associated antigen 4; assay: Inhibition of Eu-W1024 streptavidin-labeled MAGEA4 (unknown origin) expressed in Escherichia coli BL21-(DE3) incubated for 30 to 60 mins by LANCE TR-FRET assay
# [5] = organism: Homo sapiens; assay: Binding affinity to recombinant N-terminal His-tagged MAGEA4-MH domain Y5A mutant (unknown origin) expressed in Escherichia coli BL21-(DE3) assessed as inhibition of protein stabilization at 10 uM by TR-FRET assay
# [6] = target: T2, Melanoma-associated antigen 4 (Homo sapiens) (UniProt P43358); assay: Binding affinity to recombinant N-terminal His-tagged MAGEA4-MH domain (unknown origin) expressed in Escherichia coli BL21-(DE3) assessed as protection in trypsin-induced MAGEA4 protein degradation incubated for 1 hr by proteolysis based SDS-PAGE analysis
# T2 sequence (whole entry): T1 sequence (P43358 whole entry)
Kd [1] [nM],Kd [2] [nM],IC50 [3] [nM],IC50 [4] [nM],Activity [5],Activity [6],Molecule
11.8,6.5,< 10,< 1,,,CC(C)C[C@@H]1NC(=O)[C@H](CCCNC(=N)N)NC(=O)[C@H](CS)NC(=O)[C@H](Cc2ccc(O)cc2)NC(=O)CSC[C@@H](C(N)=O)NC(=O)[C@H](Cc2ccc(O)cc2)NC(=O)[C@H]([C@@H](C)O)NC(=O)[C@H](CCCNC(=N)N)NC(=O)[C@H]2CCCN2C(=O)[C@H](CC(C)C)NC(=O)[C@H](Cc2cnc[nH]2)NC(=O)[C@H](Cc2ccc(O)cc2)NC(=O)[C@H](CC(=O)O)NC(=O)[C@H](Cc2ccc(O)cc2)NC1=O
55.5,47.4,13.5,1.26,,,CC(C)C[C@@H]1NC(=O)[C@H]([C@H](C)O)NC(=O)[C@H](C(C)C)NC(=O)[C@H](Cc2ccc(O)cc2)NC(=O)CSC[C@@H](C(N)=O)NC(=O)[C@H]([C@@H](C)O)NC(=O)[C@H]2CCCN2C(=O)[C@H](Cc2ccccc2)NC(=O)[C@H](CCCNC(=N)N)NC(=O)[C@H](CC(N)=O)NC(=O)[C@H](Cc2ccccc2)NC(=O)[C@H]([C@@H](C)O)NC(=O)[C@H](CCCNC(=N)N)NC1=O
,,,,Active,,CC[C@H](C)[C@@H]1NC(=O)[C@H](Cc2ccc(O)cc2)NC(=O)CSC[C@@H](C(N)=O)NC(=O)[C@H](CC(N)=O)NC(=O)[C@H](Cc2cnc[nH]2)NC(=O)[C@H](Cc2ccc(O)cc2)NC(=O)[C@H](CC(=O)O)NC(=O)[C@H](C)NC(=O)[C@H](CC(C)C)NC(=O)[C@H](CCCNC(=N)N)NC1=O ({CH2CO}-YIRLADYHNC-NH2; thioether N-10)
,,,< 10000,,Active,Ac-YIRLYDYHNC-NH2
